Each compound was assayed on TFEB (assay: TFEB nuclear translocation assay, HeLa wt cells). Settings: Homo sapiens, HeLa, 2 h, 2 hrs compound treatment, Table 1 does not say HeLa wt or TRPML1 KO.
Format: cell-based
Outline: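 Using 20× epifluorescence of fixed, anti-TFEB-stained HeLa wt cells treated 2 hrs with compound, nuclear versus perinuclear ring intensity was quantified over four fields per well, yielding AC50 values.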

`COCC1(C)CCN(c2ccccc2NS(=O)(=O)Cc2cccc(C#N)c2)CC1` [Compound A-581, 1-(3-cyanophenyl)-N-{2-[4-(methoxymethyl)-4-methylpiperidin-1-yl]phenyl}methanesulfonamide] and `COCC1(C)CCN(c2ccccc2NS(=O)(=O)Cc2cccc(C)c2)CC1` [Compound A-593, N-{2-[4-(methoxymethyl)-4-methylpiperidin-1-yl]phenyl}-1-(3-methylphenyl)methanesulfonamide] fall in the same range of AC50: 2.01 to 8 µM for the first, 2.01 to 8 µM for the second.

`COCC1(C)CCN(c2ccccc2NS(=O)(=O)Cc2ccc(OC)cc2)CC1` [Compound A-582, N-{2-[4-(methoxymethyl)-4-methylpiperidin-1-yl]phenyl}-1-(4-methoxyphenyl)methanesulfonamide] and `COCC1(C)CCN(c2ccccc2NS(=O)(=O)Cc2cccc(OC)c2)CC1` [Compound A-596, N-{2-[4-(methoxymethyl)-4-methylpiperidin-1-yl]phenyl}-1-(3-methoxyphenyl)methanesulfonamide] fall in the same range of AC50: 2.01 to 8 µM for the first, 2.01 to 8 µM for the second.

First: CC(C)(C)C(=O)N1CCN(c2ccccc2NS(=O)(=O)C2CCc3ccccc3C2)CC1 (stereo not drawn) [Compound A-583, N-{2-[4-(2,2-dimethylpropanoyl)piperazin-1-yl]phenyl}-1,2,3,4-tetrahydronaphthalene-2-sulfonamide]
Second: CC(C)(C)C(=O)N1CCN(c2ccccc2NS(=O)(=O)c2ccc(C(C)(F)F)cc2)CC1 [Compound A-590, 4-(1,1-difluoroethyl)-N-{2-[4-(2,2-dimethylpropanoyl)piperazin-1-yl]phenyl}benzene-1-sulfonamide]
The AC50 of the first is higher: no less than 10 µM for the first, 2.01 to 8 µM for the second.

`CN(C)S(=O)(=O)c1ccc(S(=O)(=O)Nc2ccccc2N2CCC3(CCCO3)CC2)cc1` [Compound A-584, N1,N1-dimethyl-N4-(2-{1-oxa-8-azaspiro[4.5]decan-8-yl}phenyl)benzene-1,4-disulfonamide] and `CN(C)S(=O)(=O)c1ccc(S(=O)(=O)Nc2ccccc2N2CCC(C(F)F)CC2)cc1` [Compound A-585, N4-{2-[4-(difluoromethyl)piperidin-1-yl]phenyl}-N1,N1-dimethylbenzene-1,4-disulfonamide] cannot be ordered by AC50: no more than 2 µM for the first, no more than 2 µM for the second.

Compared with `COCC1(C)CCN(c2ccccc2NS(=O)(=O)Cc2cccc(S(C)(=O)=O)c2)CC1` [Compound A-586, l-(3-methanesulfonylphenyl)-N-{2-[4-(methoxymethyl)-4-methylpiperidin-1-yl]phenyl}methanesulfonamide], `COCC1(C)CCN(c2ccccc2NS(=O)(=O)Cc2cccc(F)c2)CC1` [Compound A-594, 1-(3-fluorophenyl)-N-{2-[4-(methoxymethyl)-4-methylpiperidin-1-yl]phenyl}methanesulfonamide] is lower in AC50: 8.01 to 9.99 µM for the first, 2.01 to 8 µM for the second.

First: COCCOCCOCCN(C)S(=O)(=O)c1ccc(S(=O)(=O)Nc2ccccc2N2CCC(c3ccc(Cl)cc3F)CC2)cc1 [Compound A-587, N4-{2-[4-(4-chloro-2-fluorophenyl)piperidin-1-yl]phenyl}-N1-{2-[2-(2-methoxyethoxy)ethoxy]ethyl}-N1-methylbenzene-1,4-disulfonamide]
Second: COCCOCCOCCOc1ccc(S(=O)(=O)Nc2ccccc2N2CCC(c3ccc(Cl)cc3F)CC2)cc1 [Compound A-588, N-{2-[4-(4-chloro-2-fluorophenyl)piperidin-1-yl]phenyl}-4-{2-[2-(2-methoxyethoxy)ethoxy]ethoxy}benzene-1-sulfonamide]
The AC50 of the first is higher: 2.01 to 8 µM for the first, no more than 2 µM for the second.

`CC(C)(C)C(=O)N1CCN(c2ccccc2NS(=O)(=O)c2ccc(OCC(F)(F)F)cc2)CC1` [Compound A-591, N-{2-[4-(2,2-dimethylpropanoyl)piperazin-1-yl]phenyl}-4-(2,2,2-trifluoroethoxy)benzene-1-sulfonamide] and `Cc1nc2ccc(S(=O)(=O)Nc3ccccc3N3CCN(C(=O)C(C)(C)C)CC3)cc2s1` [Compound A-600, N-{2-[4-(2,2-dimethylpropanoyl)piperazin-1-yl]phenyl}-2-methyl-1,3-benzothiazole-6-sulfonamide] cannot be ordered by AC50: no less than 10 µM for the first, no less than 10 µM for the second.

First: COCC1(C)CCN(c2ccccc2NS(=O)(=O)Cc2ccccc2C)CC1 [Compound A-592, N-{2-[4-(methoxymethyl)-4-methylpiperidin-1-yl]phenyl}-1-(2-methylphenyl)methanesulfonamide]
Second: COCC1(C)CCN(c2ccccc2NS(=O)(=O)Cc2ccccc2Cl)CC1 [Compound A-601, 1-(2-chlorophenyl)-N-{2-[4-(methoxymethyl)-4-methylpiperidin-1-yl]phenyl}methanesulfonamide]
The AC50 of the first is higher: 8.01 to 9.99 µM for the first, 2.01 to 8 µM for the second.

`COCC1(C)CCN(c2ccccc2NS(=O)(=O)Cc2ccccc2OC)CC1` [Compound A-595, N-{2-[4-(methoxymethyl)-4-methylpiperidin-1-yl]phenyl}-1-(2-methoxyphenyl)methanesulfonamide] and `COCC1(C)CCN(c2ccccc2NS(=O)(=O)Cc2ccccc2C#N)CC1` [Compound A-610, 1-(2-cyanophenyl)-N-{2-[4-(methoxymethyl)-4-methylpiperidin-1-yl]phenyl}methanesulfonamide] fall in the same range of AC50: 2.01 to 8 µM for the first, 2.01 to 8 µM for the second.

First: COCC1(C)CCN(c2ccccc2NS(=O)(=O)C2CCc3ccccc32)CC1 (stereo not drawn) [Compound A-597, N-{2-[4-(methoxymethyl)-4-methylpiperidin-1-yl]phenyl}-2,3-dihydro-1H-indene-1-sulfonamide]
Second: COCC1(C)CCN(c2ccccc2NS(=O)(=O)Cc2cccc3c2COC3)CC1 [Compound A-607, 1-(1,3-dihydro-2-benzofuran-4-yl)-N-{2-[4-(methoxymethyl)-4-methylpiperidin-1-yl]phenyl}methanesulfonamide]
The AC50 of the first is higher: 8.01 to 9.99 µM for the first, 2.01 to 8 µM for the second.

First: CN(C)S(=O)(=O)c1ccc(S(=O)(=O)Cc2ccccc2N2CCN(C(=O)OCc3ccccc3)CC2)cc1 [Compound A-598, benzyl 4-(2-{[4-(dimethylsulfamoyl)benzenesulfonyl]methyl}phenyl)piperazine-1-carboxylate]
Second: CC(C)CN1CCN(c2ccccc2CS(=O)(=O)c2ccc(S(=O)(=O)N(C)C)cc2)CC1 [Compound A-599, N,N-dimethyl-4-({2-[4-(2-methylpropyl)piperazin-1-yl]phenyl}methanesulfonyl)benzene-1-sulfonamide]
The AC50 of the first is lower: no more than 2 µM for the first, 2.01 to 8 µM for the second.

`COCC1(C)CCN(c2ccccc2NS(=O)(=O)Cc2cccc(Cl)c2)CC1` [Compound A-602, 1-(3-chlorophenyl)-N-{2-[4-(methoxymethyl)-4-methylpiperidin-1-yl]phenyl}methanesulfonamide] and `COCC1(C)CCN(c2ccccc2NS(=O)(=O)Cc2ccc3c(c2)COC3)CC1` [Compound A-612, 1-(1,3-dihydro-2-benzofuran-5-yl)-N-{2-[4-(methoxymethyl)-4-methylpiperidin-1-yl]phenyl}methanesulfonamide] fall in the same range of AC50: 2.01 to 8 µM for the first, 2.01 to 8 µM for the second.

Compared with `CC(c1ccccc1N1CCN(C2COC2)CC1)S(=O)(=O)c1ccc(S(=O)(=O)N(C)C)cc1` (stereo not drawn) [Compound A-603, N,N-dimethyl-4-(1-{2-[4-(oxetan-3-yl)piperazin-1-yl]phenyl}ethanesulfonyl)benzene-1-sulfonamide], `CC(C)CN1CCN(c2ccccc2C(C)S(=O)(=O)c2ccc(S(=O)(=O)N(C)C)cc2)CC1` (stereo not drawn) [Compound A-604, N,N-dimethyl-4-(1-{2-[4-(2-methylpropyl)piperazin-1-yl]phenyl}ethanesulfonyl)benzene-1-sulfonamide] is lower in AC50: 2.01 to 8 µM for the first, no more than 2 µM for the second.

Compared with `CN(C)S(=O)(=O)c1ccc(S(=O)(=O)Nc2cc(F)ccc2N2CCC3(CC2)COC(C)(C)C3)cc1` [Compound A-605, N4-(2-{3,3-dimethyl-2-oxa-8-azaspiro[4.5]decan-8-yl}-5-fluorophenyl)-N1,N1-dimethylbenzene-1,4-disulfonamide], `CN(C)S(=O)(=O)c1ccc(S(=O)(=O)Nc2ccc(F)cc2N2CCC3(CC2)COC(C)(C)C3)cc1` [Compound A-606, N4-(2-{3,3-dimethyl-2-oxa-8-azaspiro[4.5]decan-8-yl}-4-fluorophenyl)-N1,N1-dimethylbenzene-1,4-disulfonamide] is higher in AC50: no more than 2 µM for the first, 2.01 to 8 µM for the second.

First: COCC1(C)CCN(c2ccccc2NS(=O)(=O)c2ccc3c(c2)CCC3)CC1 [Compound A-608, N-{2-[4-(methoxymethyl)-4-methylpiperidin-1-yl]phenyl}-2,3-dihydro-1H-indene-5-sulfonamide]
Second: COCC1(C)CCN(c2ccccc2NS(=O)(=O)c2ccc(F)c(C)c2)CC1 [Compound A-616, 4-fluoro-N-{2-[4-(methoxymethyl)-4-methylpiperidin-1-yl]phenyl}-3-methylbenzene-1-sulfonamide]
The AC50 of the first is lower: no more than 2 µM for the first, 2.01 to 8 µM for the second.

First: COc1ccc(N2CCOCC2)c(NS(=O)(=O)Cc2ccc3c(c2)COCC3)c1 [Compound A-609, 1-(3,4-dihydro-1H-2-benzopyran-7-yl)-N-[5-methoxy-2-(morpholin-4-yl)phenyl]methanesulfonamide]
Second: COCC1CCN(c2ccccc2NS(=O)(=O)c2ccc3c(c2)CC(C)(C)O3)CC1 [Compound A-614, N-{2-[4-(methoxymethyl)piperidin-1-yl]phenyl}-2,2-dimethyl-2,3-dihydro-1-benzofuran-5-sulfonamide]
The AC50 of the first is higher: 8.01 to 9.99 µM for the first, no more than 2 µM for the second.

`COCCC1CCN(c2ccccc2NS(=O)(=O)c2ccc(S(=O)(=O)N(C)C)cc2)CC1` [Compound A-611, N4-{2-[4-(2-methoxyethyl)piperidin-1-yl]phenyl}-N1,N1-dimethylbenzene-1,4-disulfonamide] and `CN(C)S(=O)(=O)c1ccc(S(=O)(=O)Nc2cccc(F)c2N2CCC3(CC2)COC(C)(C)C3)cc1` [Compound A-615] cannot be ordered by AC50: no more than 2 µM for the first, no more than 2 µM for the second.

First: COCC1(C)CCN(c2ccccc2NS(=O)(=O)c2ccc3c(c2)CC(C)(C)O3)CC1 [Compound A-613, N-{2-[4-(methoxymethyl)-4-methylpiperidin-1-yl]phenyl}-2,2-dimethyl-2,3-dihydro-1-benzofuran-5-sulfonamide]
Second: COCC1(C)CCN(c2ccccc2NS(=O)(=O)c2ccc(C)c(F)c2)CC1 [Compound A-617, 3-fluoro-N-{2-[4-(methoxymethyl)-4-methylpiperidin-1-yl]phenyl}-4-methylbenzene-1-sulfonamide]
The AC50 of the first is lower: no more than 2 µM for the first, 2.01 to 8 µM for the second.

Reference: patent US20230104936A1, “TRPML MODULATORS” (Casma Therapeutics, Inc., priority 2019, published 2023)
